Test results as given in US11419856B2, “Pharmaceutical combinations for use in the treatment of neoplastic diseases” (Basilea Pharmaceutica International AG, priority 2017, dated 2022).

Legend:
[1] = Tolerability in the MDA-MB-231 xenograft model (body weight, mortalities); conditions: for Final body-weight / Body-weight change: mean ± SD
Method: (§1) The mice were housed on irradiated Enrich-o'Cobs™ Laboratory Animal Bedding in static micro-isolators on a 12-hour light cycle at 20-22° C. (68-72° F.) and 40-60% humidity. Charles River Discovery Services North Carolina (CR Discovery Services) specifically complies with the recommendations of the Guide for Care and Use of Laboratory Animals with respect to restraint, husbandry, surgical procedures, feed and fluid regulation, and veterinary care. The animal care and use program at CR Discovery Services is accredited by the Association for Assessment and Accreditation of Laboratory Animal Care International (AAALAC), which assures compliance with accepted standards for the care and use of laboratory animals. These considerations were taken into account in the way that the dosage regimes were designed and implemented.
(§2) All doses were adjusted to 10 mL/kg. The control groups received oral doses of vehicle (pH 5 buffered 0.9% NaCl solution). Eribulin was administered i.v. and BAL101553 orally. When eribulin and BAL0101553 were dosed in combination, Eribulin was administered to all groups first followed by BAL0101553 dosing within 30 minutes of the first regimen.
Body weights were recorded daily for days 1-5 and then twice weekly until the end of the study and tumor volumes were recorded twice weekly until the end of the experiment. These parameters were analyzed and graphically represented by using GraphPad-Prism™ 5 for Windows according to standard procedure. […] Skin and subcutaneous tissue including the tumor cell inoculation site from the flank region were resected, preserved in formalin and embedded in paraffin. Sections of approximately 5 μm were mounted on glass slides and stained with hematoxylin/eosin and were evaluated by a trained pathologist, to identify residual tumor cells at the site of injection, and were being reported as positive for the existence of residual tumor cells or as negative for a complete lack of any evidence of residual tumor cells.

[2] = test system: MDA-MB-231 xenograft (human triple negative breast cancer); assay: Antitumor efficacy and induction of cures in the MDA-MB-231 xenograft model (Examples 1A, 1B); assay type: in vivo, mouse
Method: as §1, with “Female athymic nude mice (Crl:NU(NCr)-Foxnlnu, Charles River) were used when ten weeks old with a body weight (BW) range of 19.7-27.1 g on Day 1 of the study. The animals were fed ad libitum water (reverse osmosis, 1 ppm Cl) and NIH 31 Modified and Irradiated Lab Diet® consisting of 18.0% crude protein, 5.0% crude fat, and 5.0% crude fiber. The mice” for “The mice”
The human MDA-MB-231 breast adenocarcinoma cells were grown to mid-log phase in RPMI-1640 medium containing 10% fetal bovine serum, 2 mM glutamine, 100 units/mL sodium penicillin G, 25 μg/mL gentamicin, and 100 μg/mL streptomycin sulfate. The tumor cells were cultured in tissue culture flasks in a humidified incubator at 37° C./5% CO2 and 95% air, harvested during exponential growth and resuspended in cold Phosphate-buffered saline (PBS). Each test animal received a subcutaneous (s.c.) injection of 5×10^6 MDA-MB-231 cells (0.1 mL cell suspension) into the right flank, and tumor growth was monitored as the average tumor size approached the target range of 100-150 mm^3. Tumors were measured (mm) in two dimensions using calipers, and volume was calculated using the formula: Tumor Volume (TV) (mm^3)=(width^2×length)/2. Eighteen days after tumor cell implantation, on Day 1 of the study, mice with individual tumor volumes ranging from 75 to 172 mm^3 were randomized into groups of 8-10 animals, with group mean tumor volumes of 114-124 mm^3.
BAL0101553 was dissolved in 0.9% NaCl in water buffered to pH 5 with 1% sodium acetate to yield 2, 2.5 and 3 mg/mL dosing solutions, providing 20, 25 and 30 mg/kg dosages, respectively, in 10 mL/kg dosing volumes. Eribulin (purchased from Eisai Co., Lot. No. 6217, 6288, 6289 and 6309) at 0.5 mg/mL concentration was diluted in saline to yield a 0.01, 0.025 and 0.05 mg/mL dosing solutions, providing 0.1, 0.25 and 0.5 mg/kg dosages, respectively, in a dosing volume of 10 mL/kg.
as §2, with “Groups of mice (n=8-10) bearing MDA-MB-231 tumors were dosed as outlined in the Tables 1 and 3. All” for “All”
Body weights were recorded daily for days 1-5 and then twice weekly until the end of the study and tumor volumes were recorded twice weekly until the end of the experiment. These parameters were analyzed and graphically represented by using GraphPad-Prism™ 5 for Windows according to standard procedure. […] Tumor free animals at the end of the study time were assessed for residual MDA-MB-231 tumor cells by pathological methods. Skin and subcutaneous tissue including the tumor cell inoculation site from the flank region were resected, preserved in formalin and embedded in paraffin.

[3] = E1A, Day 25, i.v. 0.1 mg/kg q2d D1-D9, 0.1 mg/kg q2d D12-D34
[4] = E1A, Day 25, i.v. 0.5 mg/kg q2d D1-D9, 0.5 mg/kg q2d D12-D34
[5] = E1B, Day 26, i.v. 0.1 mg/kg q2d D1-D21, 0.1 mg/kg q2d D25-D43
[6] = E1B, Day 26, i.v. 0.25 mg/kg q2d D1-D21, 0.25 mg/kg q2d D25-D43
[7] = E1B, Day 26, i.v. 0.5 mg/kg q2d D1-D21, 0.5 mg/kg q2d D25-D43
[8] = Day 26, Eribulin i.v. 0.1 mg/kg q2d D1-D21, 0.1 mg/kg q2d D25-D43
[9] = Day 26, Eribulin i.v. 0.25 mg/kg q2d D1-D21, 0.25 mg/kg q2d D25-D43
[10] = Day 26, Eribulin i.v. 0.5 mg/kg q2d D1-D21, 0.5 mg/kg q2d D25-D43
[11] = Day 100 (endpoint), Eribulin i.v. 0.1 mg/kg q2d D1-D21, 0.1 mg/kg q2d D25-D43
[12] = Day 100 (endpoint), Eribulin i.v. 0.25 mg/kg q2d D1-D21, 0.25 mg/kg q2d D25-D43
[13] = Day 100 (endpoint), Eribulin i.v. 0.5 mg/kg q2d D1-D21, 0.5 mg/kg q2d D25-D43
[14] = E1A, Day 25, i.v. 0-1 mg/kg q2d D1-D9, 0.1 mg/kg q2d D12-D34
[15] = E1A, Day 85 (endpoint), i.v. 0-1 mg/kg q2d D1-D9, 0.1 mg/kg q2d D12-D34
[16] = E1A, Day 85 (endpoint), i.v. 0.5 mg/kg q2d D1-D9, 0.5 mg/kg q2d D12-D34

## C=C1C[C@@H]2CC[C@@]34C[C@H]5O[C@H]6[C@@H](O3)[C@H]3O[C@H](CC[C@@H]3O[C@H]6[C@H]5O4)CC(=O)C[C@@H]3[C@@H](OC)[C@@H](C[C@H](O)CN)O[C@H]3C[C@H]3O[C@@H](CC[C@@H]1O2)C[C@@H](C)C3=C.CS(=O)(=O)O [Eribulin, (2R, 3R, 3aS, 7R, 8aS, 9S, 10aR, 11S, 12R, 13aR, 13bS, 15S, 18S, 21S, 24S, 26R, 28R, 29aS)-2-[(2S)-3-Amino-2-hydroxypropyl]-3-methoxy-26-methyl-20,27-dimethylidenehexacosahydro-11,15:18,21:24,28-triepoxy-7,9-ethano-12,15-methano-9H,15H-furo[3,2-i]furo[2′,3′:5,6]pyrano[4,3-b][1,4]dioxacyclopentacosin-5(4H)-one methanesulfonate (salt)]
[1]; [3]
  T/C (TC-BW, body weight): 1.00
  Final body-weight: 25.8 ± 3.0 g
[1]; [4]
  T/C (TC-BW, body weight): 0.96
  Final body-weight: 24.4 ± 1.9 g
[1]; E1A, day-0 until day-25, i.v. 0.1 mg/kg q2d D1-D9, 0.1 mg/kg q2d D12-D34
  Body-weight change: 2.1 ± 1.0 g
[1]; E1A, i.v. 0.1 mg/kg q2d D1-D9, 0.1 mg/kg q2d D12-D34
  Mortalities: 0/8
[1]; E1A, i.v. 0.5 mg/kg q2d D1-D9, 0.5 mg/kg q2d D12-D34
  Mortalities: 0/8
[1]; [5]
  T/C (TC-BW, body weight): 1.09
  Final body-weight: 27.9 ± 2.7 g
[1]; [6]
  T/C (TC-BW, body weight): 1.02
  Final body-weight: 26.6 ± 1.7 g
[1]; [7]
  T/C (TC-BW, body weight): 1.03
  Final body-weight: 25.5 ± 1.5 g
[1]; E1B, day-0 until day-26, i.v. 0.1 mg/kg q2d D1-D21, 0.1 mg/kg q2d D25-D43
  Body-weight change: 3.9 ± 1.1 g
[1]; E1B, day-0 until day-26, i.v. 0.25 mg/kg q2d D1-D21, 0.25 mg/kg q2d D25-D43
  Body-weight change: 2.3 ± 1.0 g
[1]; E1B, day-0 until day-26, i.v. 0.5 mg/kg q2d D1-D21, 0.5 mg/kg q2d D25-D43
  Body-weight change: 2.3 ± 0.9 g
[1]; E1B, i.v. 0.1 mg/kg q2d D1-D21, 0.1 mg/kg q2d D25-D43
  Mortalities: 0/10
[1]; E1B, i.v. 0.25 mg/kg q2d D1-D21, 0.25 mg/kg q2d D25-D43, a non-treatment related death footnoted
  Mortalities: 0/10^+
[1]; E1B, i.v. 0.5 mg/kg q2d D1-D21, 0.5 mg/kg q2d D25-D43
  Mortalities: 0/10
[2]; [8]
  # of regressed tumors (total): 2 (10)
  T/C: 0.12
[2]; [9]
  # of regressed tumors (total): 8 (10)
  T/C: −0.05
[2]; [10]
  # of regressed tumors (total): 10 (10)
  T/C: −0.09
[2]; [11]
  # of confirmed cures (total): 0 (10)
  # of tumors with TV ≤ 4 mm^3 (total): 0 (10)
  % cures: 0%
[2]; [12]
  # of confirmed cures (total): 1 (9)
  # of tumors with TV ≤ 4 mm^3 (total): 1 (10)
  % cures: 11%
[2]; [13]
  # of confirmed cures (total): 6 (10)
  # of tumors with TV ≤ 4 mm^3 (total): 2 (10)
  % cures: 60%
[2]; [14]
  # of regressed tumors (total): 1 (8)
  T/C: 0.13
[2]; [4]
  # of regressed tumors (total): 8 (8)
  T/C: −0.09
[2]; [15]
  # of confirmed cures (total): 0 (8)
  # of tumors with TV ≤ 4 mm^3 (total): 0 (8)
  % cures: 0%
[2]; [16]
  # of confirmed cures (total): 1 (8)
  # of tumors with TV ≤ 4 mm^3 (total): 3 (8)
  % cures: 12.5%
